Measurements taken from PubChem BioAssay (NCI).
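How tested: cells in 96-well plates exposed to compound for 48 hours at five concentrations. TGI: total growth inhibition.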

Experiments:
Assay in all cases: NCI-60 cell line screen, 48 h
IGROV1 ovarian = system: IGROV1 ovarian
MCF7 breast = system: MCF7 breast
PC-3 prostate = system: PC-3 prostate
SK-OV-3 ovarian = system: SK-OV-3 ovarian
SN12C renal = system: SN12C renal
SNB-75 CNS = system: SNB-75 CNS
T-47D breast = system: T-47D breast

NCCCN(CCCN)CCN(CCN(CCCN)CCCN)CCN(CCCN)CCCN
TGI (IGROV1 ovarian): > 100 µM
TGI (MCF7 breast): > 100 µM
TGI (PC-3 prostate): > 100 µM
TGI (SK-OV-3 ovarian): > 100 µM
TGI (SN12C renal): > 100 µM
TGI (SNB-75 CNS): 22.9 µM
TGI (T-47D breast): > 100 µM
